Source: ChEMBL document CHEMBL3769391, “Identification of a new cyathane diterpene that induces mitochondrial and autophagy-dependent apoptosis and shows a potent in vivo anti-colorectal cancer activity” (Eur J Med Chem, 2016)
The source made the active and inactive calls. The rule behind the calls is not given here.

How the values were obtained:
[1] = test system: HCT-116; assay: Induction of apoptosis in Bax deficient human HCT116 cells assessed as early apoptotic cells at 15 uM after 24 hrs by Annexin V-FITC/propidium iodide staining based flow cytometry (reference value: 0.85 to 1.13%); format: functional
[2] = test system: HCT-116; assay: Induction of apoptosis in human HCT116 cells assessed as caspase activation at 5 uM after 12 hrs by CaspACEFITC-VAD-FMK staining based flow cytometry (reference value: 7.72%); format: functional
[3] = test system: Mus musculus; assay: Hepatotoxicity in immune deficient nude BALB/c mouse xenografted with Bax deficient human HCT116 cells assessed as changes in albumin level in serum at 5 and 10 mg/kg, ip administered every other day for 2 weeks measured during compound dosing; format: toxicity, organism-based, HCT-116; settings: in vivo, 336 h
[4] = test system: HCT-116; assay: Induction of apoptosis in human HCT116 cells assessed as viable cells at 5 uM after 24 hrs by Annexin V-FITC/propidium iodide staining based flow cytometry in presence of NAC (reference value: 93.64%); format: functional; settings: HCT-116, 24 h, read-out: Activity
[5] = test system: HCT-116; assay: Induction of apoptosis in Bax deficient human HCT116 cells assessed as early apoptotic cells at 10 uM after 24 hrs by Annexin V-FITC/propidium iodide staining based flow cytometry (reference value: 1.13%); format: functional
[6] = test system: HCT-116; assay: Induction of apoptosis in Bax deficient human HCT116 cells assessed as late apoptotic cells at 15 uM after 24 hrs by Annexin V-FITC/propidium iodide staining based flow cytometry (reference value: 1.5 to 1.56%); format: functional
[7] = test system: HCT-116; assay: Induction of apoptosis in Bax deficient human HCT116 cells assessed as early apoptotic cells at 5 uM after 24 hrs by Annexin V-FITC/propidium iodide staining based flow cytometry (reference value: 1.13%); format: functional
[8] = test system: HCT-116; assay: Induction of apoptosis in human HCT116 cells assessed as ATG5 cleavage at 5 uM after 4 to 12 hrs by Western blot analysis; format: functional, cell-based
[9] = test system: HCT-116; assay: Induction of apoptosis in human HCT116 cells assessed as late apoptotic cells at 7.5 uM after 24 hrs by Annexin V-FITC/propidium iodide staining based flow cytometry (reference value: 4.54%); format: functional
[10] = test system: Mus musculus; assay: Toxicity in immune deficient nude BALB/c mouse xenografted with Bax deficient human HCT116 cells assessed as discomfort behavioral changes at 5 and 10 mg/kg, ip administered every other day for 2 weeks measured during compound dosing; format: organism-based, HCT-116; settings: in vivo, 336 h
[11] = test system: HCT-116; assay: Induction of apoptosis in ATG5 scramble human HCT116 cells assessed as early apoptotic cells at 5 uM after 24 hrs by Annexin V-FITC/propidium iodide staining based flow cytometry (reference value: 1.99%); format: functional
[12] = Cytotoxicity against human HCT116 cells assessed as reduction in cell viability after 24 hrs by MTT assay; format: functional, cell-based; settings: HCT-116, 24 h
[13] = target: c-Jun N-terminal kinase, JNK (Homo sapiens) (UniProt P45983+P53779+P45984); assay: Induction of JNK phosphorylation in human HCT116 cells at 5 uM after 4 hrs by Western blot analysis; format: cell-based; settings: HCT-116
[14] = test system: HCT-116; assay: Induction of apoptosis in human HCT116 cells assessed as ATG5 cleavage by Western blot analysis in presence of Z-VAD-FMK; format: functional, cell-based
[15] = test system: HCT-116; assay: Induction of apoptosis in Bax deficient human HCT116 cells assessed as early apoptotic cells at 15 uM after 24 hrs by Annexin V-FITC/propidium iodide staining based flow cytometry in presence of DTT (reference value: 0.85%); format: functional
[16] = test system: HCT-116; assay: Induction of autophagy in human HCT116 cells assessed as ATG5-ATG12 complex at 5 uM after 4 to 12 hrs by Western blot analysis; format: functional, cell-based
[17] = Antitumor activity against human HCT116 cells xenografted in immune deficient nude BALB/c mouse assessed as tumor growth inhibition at 5 mg/kg, ip administered every other day for 2 weeks measured after 2 weeks post last dose relative to control; format: functional; settings: HCT-116, ip, 336 h, read-out: TGI
[18] = test system: HCT-116; assay: Induction of apoptosis in human HCT116 cells assessed as caspase activation at 5 uM by CaspACEFITC-VAD-FMK staining based flow cytometry; format: functional, cell-based; settings: TDE = time-dependent effect
[19] = test system: HCT-116; assay: Induction of apoptosis in human HCT116 cells assessed as necrotic cells at 5 uM after 24 hrs by Annexin V-FITC/propidium iodide staining based flow cytometry in presence of DTT (reference value: 0.44%); format: functional
[20] = test system: HCT-116; assay: Induction of apoptosis in human HCT116 cells assessed as changes in p53 expression at 5 uM after 6 to 24 hrs by Western blot analysis; format: functional, cell-based
[21] = test system: HCT-116; assay: Induction of apoptosis in human HCT116 cells assessed as apoptotic cells at 5 uM after 24 hrs by Annexin V-FITC/propidium iodide staining based flow cytometry in presence of caspase inhibitor Z-VAD-FMK; format: functional
[22] = test system: SW480; assay: Induction of apoptosis in human SW480 cells assessed as apoptotic cells at 10 uM after 24 hrs by Annexin V-FITC/propidium iodide staining based flow cytometry; format: functional, cell-based
[23] = test system: HCT-116; assay: Induction of apoptosis in Bax deficient human HCT116 cells assessed as late apoptotic cells at 15 uM after 24 hrs by Annexin V-FITC/propidium iodide staining based flow cytometry in presence of NAC (reference value: 1.56%); format: functional
[24] = test system: HCT-116; assay: Induction of apoptosis in Bax deficient human HCT116 cells assessed as late apoptotic cells at 10 uM after 24 hrs by Annexin V-FITC/propidium iodide staining based flow cytometry (reference value: 1.5%); format: functional
[25] = test system: HCT-116; assay: Induction of apoptosis in human HCT116 cells assessed as late apoptotic cells at 5 uM after 24 hrs by Annexin V-FITC/propidium iodide staining based flow cytometry in presence of NAC (reference value: 3.73%); format: functional
[26] = test system: Mus musculus; assay: Hepatotoxicity in immune deficient nude BALB/c mouse xenografted with human HCT116 cells assessed as changes in total protein level in serum at 5 and 10 mg/kg, ip administered every other day for 2 weeks measured during compound dosing; format: toxicity, organism-based, HCT-116; settings: in vivo, 336 h
[27] = test system: HCT-116; assay: Induction of chloroquine-induced autophagic flux in human HCT116 cells assessed as increase in LC3-2 level at 5 uM by Western blot analysis; format: functional, cell-based
[28] = test system: HCT-116; assay: Induction of apoptosis in human HCT116 cells assessed as late apoptotic cells at 5 uM after 24 hrs by Annexin V-FITC/propidium iodide staining based flow cytometry in presence of DTT (reference value: 3.73%); format: functional
[29] = Antitumor activity against Bax deficient human HCT116 cells xenografted in immune deficient nude BALB/c mouse assessed as tumor growth inhibition at 5 mg/kg, ip administered every other day for 2 weeks measured after 2 weeks post last dose relative to control; format: functional; settings: HCT-116, ip, 336 h, read-out: TGI
[30] = Antitumor activity against Bax deficient human HCT116 cells xenografted in immune deficient nude BALB/c mouse assessed as tumor growth inhibition at 10 mg/kg, ip administered every other day for 2 weeks measured after 2 weeks post last dose relative to control; format: functional; settings: HCT-116, ip, 336 h, read-out: TGI
[31] = test system: HCT-116; assay: Induction of apoptosis in human HCT116 cells assessed as late apoptotic cells at 5 uM after 24 hrs by Annexin V-FITC/propidium iodide staining based flow cytometry (reference value: 3.73 to 4.54%); format: functional
[32] = test system: HCT-116; assay: Induction of apoptosis in Bax deficient human HCT116 cells assessed as late apoptotic cells at 20 uM after 24 hrs by Annexin V-FITC/propidium iodide staining based flow cytometry (reference value: 1.5%); format: functional

Compound: CO[C@@H]1C(C=O)=CC[C@@H]2C3=C(C(C)C)CC[C@]3(C)CC[C@@]2(C)[C@H]1O
- Activity [1]: 47.04%
- Activity [2]: 66.85%
- Activity [3]: Non-toxic
- viability at 5 µM [4]: 91.4%
- Activity [5]: 44.04%
- Activity [6]: 29.02%
- Activity [7]: 6.35%
- Activity [8]: Active
- Activity [9]: 20.8%
- Activity [10]: Non-toxic
- Activity [11]: 15.2%
- IC50 [12]: 9.16 µM
- Activity [13]: Active
- Activity [14]: inactive
- Activity [15]: 2.67%
- Activity [16]: Active
- inhibition in vivo at 5 mg/kg [17]: 26%
- Activity [18]: tde
- Activity [19]: 0.33%
- Activity [20]: inactive
- Activity [21]: 28.81%
- Activity [22]: Active
- Activity [23]: 2.07%
- Activity [24]: 17.64%
- Activity [25]: 6.46%
- Activity [26]: Non-toxic
- Activity [27]: Active
- Activity [28]: 13.34%
- inhibition in vivo at 5 mg/kg [29]: 25.8%
- inhibition in vivo at 10 mg/kg [30]: 60.1%
- Activity [31]: 13.06%
- Activity [32]: 32.25%
